# Test results: the supplement of paper PMC10307832
# Assays:
# Assay in all cases: relative viability (nuclei count vs DMSO), 5 days (fraction); higher = more cells survive
# [1] = compound: C1CCC(CC1)N(CCNCCC2=C3C(=C(C=C2)O)NC(=O)CO3)C(=O)CCNCCC4=CC(=C(C=C4)Cl)Cl [AZ505] + COc1cccc2cc(-c3nc([C@H]4CC[C@H](C(=O)O)CC4)n4ncnc(N)c34)[nH]c12 [OSI-027] (partner 0.5 µM)
# Summary of the method: (§1)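 Lung cancer cell lines were seeded in 1536-well plates and dosed by pin tool the next day, with either a single drug or a fixed anchor-drug dose combined with five library-drug doses (not always all listed) spaced in √10 steps. Five days later, one step fixed the cells and stained their nuclei (final 0.05% Triton X-100, 1% formaldehyde, 1 ug/ml Hoechst), and nuclei were counted on 4× images. Relative viability is the nuclei count in treated wells divided by the count in vehicle wells, and each value is the median of duplicate plates.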
# [2] = compound: C1CCC(CC1)N(CCNCCC2=C3C(=C(C=C2)O)NC(=O)CO3)C(=O)CCNCCC4=CC(=C(C=C4)Cl)Cl [AZ505] + Cc1cc(Nc2cc(N3CCN(C)CC3)nc(Sc3ccc(NC(=O)C4CC4)cc3)n2)n[nH]1 [Tozasertib] (partner 0.1 µM)
# Summary of the method: as §1
# [3] = compound: C1CCC(CC1)N(CCNCCC2=C3C(=C(C=C2)O)NC(=O)CO3)C(=O)CCNCCC4=CC(=C(C=C4)Cl)Cl [AZ505] + NC(=O)Nc1cc(-c2cccc(F)c2)sc1C(=O)N[C@H]1CCCNC1 [AZD7762] (partner 0.2 µM)
# Summary of the method: as §1
# [4] = compound: Cn1c(=O)n(-c2ccc(C(C)(C)C#N)cc2)c2c3cc(-c4cnc5ccccc5c4)ccc3ncc21 [Dactolisib] + Cc1nc(NC(=O)N2CCC[C@H]2C(N)=O)sc1-c1ccnc(C(C)(C)C(F)(F)F)c1 [Alpelisib] (partner 2 µM)
# Summary of the method: as §1
Cell Line,relative viability ([1]; first compound 0.08 µM),relative viability ([1]; first compound 0.253 µM),relative viability ([1]; first compound 0.8 µM),relative viability ([1]; first compound 2.53 µM),relative viability ([1]; first compound 8 µM),relative viability ([2]; first compound 0.08 µM),relative viability ([2]; first compound 0.253 µM),relative viability ([2]; first compound 0.8 µM),relative viability ([2]; first compound 2.53 µM),relative viability ([2]; first compound 8 µM),relative viability ([3]; first compound 0.253 µM),relative viability ([3]; first compound 0.8 µM),relative viability ([3]; first compound 2.53 µM),relative viability ([3]; first compound 8 µM),relative viability ([4]; first compound 0.002 µM),relative viability ([4]; first compound 0.006325 µM),relative viability ([4]; first compound 0.02 µM),relative viability ([4]; first compound 0.06325 µM),relative viability ([4]; first compound 0.2 µM),relative viability ([3]; first compound 0.08 µM)
NCI-H1648,0.282,0.272,0.295,0.305,0.267,0.469,0.581,0.408,0.562,0.703,0.755,0.921,0.818,0.825,,,,,,
SK-MES-1,0.501,0.53,0.534,0.577,0.583,0.853,0.863,0.898,0.785,0.884,,,,,1.06,0.842,0.833,0.474,0.406,
SK-LU-1,0.168,0.184,0.201,0.197,0.255,0.312,0.302,0.242,0.345,0.235,,,,,1.03,0.94,0.779,0.363,0.276,
HCC-366,0.817,0.635,0.948,0.764,0.924,0.128,0.113,0.152,0.132,0.0879,0.215,0.281,0.151,0.247,0.329,0.369,0.401,0.175,0.134,0.357
201T,0.688,0.721,0.813,0.91,0.764,0.896,1.08,0.905,0.943,0.875,0.572,0.688,0.596,0.613,1.01,0.994,0.986,0.98,0.688,0.63
HCC-827,0.691,0.844,0.753,0.846,0.847,0.421,0.426,0.448,0.436,0.447,0.163,0.49,0.204,0.263,0.964,1.01,0.943,0.468,0.359,0.25
NCI-H647,0.615,0.698,0.488,0.619,0.693,0.46,0.425,0.277,0.372,0.363,0.226,0.539,0.576,0.722,1.33,0.811,0.543,0.164,0.125,0.344
NCI-H2023,0.437,0.322,0.421,0.393,0.398,0.293,0.371,0.395,0.298,0.322,,,,,0.54,0.56,0.553,0.147,0.153,
NCI-H520,0.26,0.285,0.288,0.306,0.322,0.441,0.389,0.44,0.469,0.463,,,,,1.11,0.657,0.753,0.263,0.194,
RERF-LC-KJ,0.471,0.575,0.552,0.574,0.492,0.432,0.432,0.467,0.459,0.388,0.964,0.923,0.98,0.909,0.806,0.818,0.742,0.543,0.551,0.95
A-427,0.416,0.278,0.376,0.504,0.492,0.211,0.177,0.194,0.187,0.216,0.618,0.705,0.715,0.647,1.16,1.01,1.03,0.733,0.578,0.695
NCI-H441,0.66,0.595,0.614,0.579,0.703,0.564,0.546,0.625,0.534,0.589,1.14,1.06,1.36,1.54,1.05,0.74,0.685,0.429,0.271,0.876
NCI-H1703,,,,,,,,,,,,0.12,0.114,0.134,0.205,0.329,0.34,0.267,0.216,0.106
NCI-H1792,0.712,,0.687,0.718,0.739,,,,,,0.247,0.544,0.642,0.833,0.783,0.671,0.549,0.165,0.125,0.627
Calu-6,,,,,,,,,,,,,,,0.99,0.897,0.694,0.401,0.338,
SW 1573,0.589,0.579,0.689,0.68,0.63,0.174,0.169,0.175,0.171,0.144,,,,,0.94,0.784,0.682,0.322,0.33,
PC-3 [JPC-3],0.671,0.798,0.712,0.707,0.797,0.83,0.919,0.87,0.848,0.867,,0.843,0.873,1.06,1.15,1.02,0.977,0.78,0.641,0.784
EMC-BAC-2,0.358,0.38,0.392,0.385,0.372,0.268,0.323,0.299,0.274,0.275,1.17,1.11,1.14,1.14,0.802,0.708,0.69,0.542,0.374,0.957
